Measured values published in ChEMBL document CHEMBL2150862, “Cyclopropyl-spiro-piperidines Useful as Sodium Channel Blockers: Patent Highlight” (ACS Med Chem Lett, 2012).

What follows are molecules tested against Sodium channel protein type 9 subunit alpha (Homo sapiens, UniProt Q15858) (assay: Inhibition of Nav1.7 by cell-based FLIPR assay).
Sodium channel protein type 9 subunit alpha, sequence (Q15858 whole entry): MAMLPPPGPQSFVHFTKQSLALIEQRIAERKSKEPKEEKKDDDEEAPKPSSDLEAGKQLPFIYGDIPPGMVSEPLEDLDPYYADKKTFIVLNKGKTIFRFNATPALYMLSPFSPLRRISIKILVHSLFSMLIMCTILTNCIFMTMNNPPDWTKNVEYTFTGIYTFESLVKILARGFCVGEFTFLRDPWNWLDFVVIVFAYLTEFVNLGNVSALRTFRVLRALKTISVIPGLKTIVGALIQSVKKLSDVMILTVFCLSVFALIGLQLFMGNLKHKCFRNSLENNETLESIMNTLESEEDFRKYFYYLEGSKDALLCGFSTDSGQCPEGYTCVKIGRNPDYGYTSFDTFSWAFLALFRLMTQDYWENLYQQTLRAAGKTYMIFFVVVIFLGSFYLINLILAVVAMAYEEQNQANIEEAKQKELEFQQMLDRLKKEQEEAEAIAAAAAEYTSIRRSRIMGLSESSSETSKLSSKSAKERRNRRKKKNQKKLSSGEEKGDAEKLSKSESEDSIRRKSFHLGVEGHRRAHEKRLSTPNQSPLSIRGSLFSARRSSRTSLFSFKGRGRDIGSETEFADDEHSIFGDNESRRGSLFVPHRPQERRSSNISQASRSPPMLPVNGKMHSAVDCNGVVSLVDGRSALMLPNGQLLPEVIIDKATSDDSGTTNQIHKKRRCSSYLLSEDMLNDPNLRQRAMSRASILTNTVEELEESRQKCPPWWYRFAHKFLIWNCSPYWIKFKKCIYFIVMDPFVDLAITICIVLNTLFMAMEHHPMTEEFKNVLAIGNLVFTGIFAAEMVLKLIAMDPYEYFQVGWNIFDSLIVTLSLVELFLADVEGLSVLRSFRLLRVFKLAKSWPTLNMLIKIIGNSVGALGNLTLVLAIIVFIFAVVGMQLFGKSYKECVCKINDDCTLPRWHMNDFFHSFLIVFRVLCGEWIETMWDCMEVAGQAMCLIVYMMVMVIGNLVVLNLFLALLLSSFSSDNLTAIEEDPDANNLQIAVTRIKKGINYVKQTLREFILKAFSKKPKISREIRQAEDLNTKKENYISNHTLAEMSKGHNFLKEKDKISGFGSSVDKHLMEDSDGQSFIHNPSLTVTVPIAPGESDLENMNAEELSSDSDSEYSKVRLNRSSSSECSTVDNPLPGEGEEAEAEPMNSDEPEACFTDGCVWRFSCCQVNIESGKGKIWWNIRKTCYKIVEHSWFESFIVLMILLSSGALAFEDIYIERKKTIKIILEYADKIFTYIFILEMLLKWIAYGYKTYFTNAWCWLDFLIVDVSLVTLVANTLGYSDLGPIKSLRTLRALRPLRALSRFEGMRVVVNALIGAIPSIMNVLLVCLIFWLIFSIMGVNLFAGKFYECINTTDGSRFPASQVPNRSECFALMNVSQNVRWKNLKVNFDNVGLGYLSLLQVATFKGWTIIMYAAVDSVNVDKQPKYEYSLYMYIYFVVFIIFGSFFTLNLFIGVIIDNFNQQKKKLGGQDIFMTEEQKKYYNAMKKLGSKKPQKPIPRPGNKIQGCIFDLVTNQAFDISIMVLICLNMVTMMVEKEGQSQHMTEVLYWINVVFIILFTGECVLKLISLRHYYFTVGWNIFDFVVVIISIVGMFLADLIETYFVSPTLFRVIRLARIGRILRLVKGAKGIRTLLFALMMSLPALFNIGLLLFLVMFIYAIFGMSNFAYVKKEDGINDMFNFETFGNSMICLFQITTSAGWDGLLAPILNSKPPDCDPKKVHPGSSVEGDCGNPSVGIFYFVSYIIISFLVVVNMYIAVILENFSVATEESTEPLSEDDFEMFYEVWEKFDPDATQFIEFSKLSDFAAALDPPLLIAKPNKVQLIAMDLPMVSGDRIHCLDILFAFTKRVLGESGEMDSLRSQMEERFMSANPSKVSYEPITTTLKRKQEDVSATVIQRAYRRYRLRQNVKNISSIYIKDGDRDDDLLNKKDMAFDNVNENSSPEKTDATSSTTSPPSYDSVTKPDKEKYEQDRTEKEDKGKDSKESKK

| Structure (SMILES) | IC50 [nM] |
| --- | --- |
| c1ccc(CN2CCC3(CC2)CC3CNc2ccccc2N2CCCCC2)cc1 (stereo unspecified) | 291 |
| c1ccc(CC(NCC2CC23CCN(c2ccccc2)CC3)c2ccccc2)cc1 (stereo unspecified) | 177 |
| CN(C)c1ccc(C(=O)NC2CC23CCN(c2ccccc2)CC3)c2ccccc12 (stereo unspecified) | 98.3 |
| CN(C)c1cccc2c(C(=O)NC3CC34CCN(c3ccccc3)CC4)cccc12 (stereo unspecified) | 237 |
| O=C(NC1CC12CCN(c1ccccc1)CC2)c1ccc(F)c2ccccc12 (stereo unspecified) | 188 |
| CN(C)c1ccc(C(=O)NC2CC23CCN(c2cc(F)cc(F)c2)CC3)c2ccccc12 (stereo unspecified) | 151 |
